The series can be described thus: Detection of RONS in plasma-treated polymer solutions (strips, AR/HRP reagent, Griess reagent). In kind it is physicochemical. The following applies: 200 μL. The source says:
In the examples presented here, two kinds of atmospheric plasma jet were used: a commercially available cold atmospheric plasma jet kINPen IND (NEOPLAS Tools, Germany), operating with argon and an atmospheric pressure plasma jet (APPJ) using He as plasma gas in a jet design based on a single electrode. Gas flow was regulated between 1 and 2.5 L/min for kINPen and between 1 and 5 L/min for APPJ by using Ar and He Bronkhorst Mass View flow controllers (BRONKHORST, Netherlands), respectively. All plasma treatments of polymeric solutions for RONS quantification were performed on 200 μL of the polymeric solution in 96-well plates, with a distance between the nozzle and the sample surface between 10 and 20 mm. These plasma treatments were done with ungrounded samples. Both grounded and ungrounded samples can be used to obtain the compositions of the present invention, since the skilled person can set the plasma treatment conditions to obtain the desired RONS concentrations.
Determination of NO2^− concentration in plasma-treated polymer solutions was performed using Griess reagent. The Griess reagent used was obtained by dissolving 1% wt/v of sulphanilamide, 0.1% wt/v of N-(1-naphthyl)ethylenediamine dihydrochloride (NEED) and 5% w/v of phosphoric acid in de-ionized water. 200 μL of Griess reagent were added on 200 μL of sample in 96 well-plates. The plates were incubated for 10 min at room temperature protected from the light. The absorbance was measured at λabs=540 nm using a Synergy HTX Hybrid Multi Mode Microplate Reader (BioTek Instruments, Inc., USA). The [NO2^−] in each sample was determined from the absorbance values by using a calibration curve made from NaNO2 dilutions in the corresponding polymer solutions.
The concentration of hydrogen peroxide was determined by reaction of H2O2 with Amplex Red in presence of HRP enzyme that leads to the creation of resorufin, a fluorescent product. Amplex Red/HRP reagent consists in 100 μM of Amplex Red and 0.25 U/mL HRP in DI water. Since the higher concentration of H2O2 able to be processed properly by this reagent is around 10 μM of H2O2, plasma-treated polymer solutions were diluted 200 times previously to the addition of the reagent. In this case, for hydrogen peroxide detection, 50 μL of the Amplex Red/HRP reagent was added to 200 μL of the 200×-diluted polymer solution sample in a 96-well plate and incubated for 30 min at 37° C. Subsequent fluorescence measurements were performed by means of a Synergy HTX Hybrid Multi Mode Microplate Reader (BioTek Instruments, Inc., USA), with fluorescence filters centred at λex=560/20 nm and λem=590/20 nm as excitation and emission wavelengths, respectively. Concentrations of H2O2 in polymer solution generated by plasma treatment were obtained from the fluorescence values using a calibration curve made from 30% hydrogen peroxide solution in the corresponding polymer solutions.
For certain polymer solutions, interferences may be found between the solution and the reactants, invalidating the measure. In such cases, another method was used to determine the concentration of H2O2, […] in the polymer solutions after plasma treatment: QUANTOFIX® test strips, which were analyzed by means of a reflexion photometer (QUANTOFIX® Relax, of Macherey Nagel). The strips consist of plastic strips to which test paper has been sealed. Nitrite strips are also based in Griess reagent. Peroxide strips also use a redox reaction. The range of detection of the test strips used for H2O2, NO3^− and NO2^− were 1-100 mg/L, 10-500 mg/L and 1-80 mg/L, respectively. The plasma-treated polymer solutions were diluted, if necessary, to be within the measuring range.
(The Griess reaction detects nitrite, a stable product of nitric oxide.)

Consider Water, for which the H2O2 is, setting by setting: (APPJ, treat. time 180 s) 9.2 mg/L; (APPJ, treat. time 300 s) 16.4 mg/L; (kINPen, treat. time 180 s) 10.3 mg/L; (kINPen, treat. time 300 s) 29.3 mg/L. The “NO2^−” value reads like this: (APPJ, treat. time 180 s) 1.7 mg/L; (APPJ, treat. time 300 s) 2.7 mg/L; (kINPen, treat. time 180 s) 2.6 mg/L; (kINPen, treat. time 300 s) 2.7 mg/L.

(Values after patent US12691145B2, “Plasma-treated hydrogel compositions and uses thereof” (UNIVERSITAT POLITÉCNICA DE CATALUNYA, priority 2020, dated 2026).)
